Test [1] relates to Brevibacterium flavum AJ13325. The test is described as follows: Growth of β-(2-thienyl)-DL-alanine resistant strains in the presence of β-(2-thienyl)-DL-alanine. It counts as cell-based. The following applies: 0.25 g/L of β-(2-thienyl)-DL-alanine. The procedure: Similarly, the term “β-(2-thienyl)-DL-alanine resistance” refers to the property that a bacterium grows faster than the wild type in a medium containing β-(2-thienyl)-DL-alanine. For example, those strains that form colonies on a solid medium containing 0.25 g/L of β-(2-thienyl)-DL-alanine at 30° C. within 4 to 5 days are said to have β-(2-thienyl)-DL-alanine resistance.
To select B-(2-thienyl)-DL-alanine resistant strains from NG treated strains using Brevibacterium flavum AJ13377 as a parent strain, Brevibacterium flavum AJ13377 cells were NG treated and washed before their inoculation on a minimal medium for selection. The minimal medium for selection was a medium that contained 20 g of glucose, 1 g of ammonium sulfate, 1 g of potassium dihydrogen phosphate, 2.5 g of urea, 0.4 g of magnesium sulfate heptahydrate, 0.01 g of iron (II) sulfate heptahydrate, 0.01 g of manganese sulfate tetra- to pentahydrate, 50 μg of biotin, 200 μg of thiamin hydrochloride, 200 μg of nicotinic acid amide, and 250 mg of β-(2-thienyl)-DL-alanine per liter of distilled water. The NG treated mutant was incubated in the above-described medium at 30° C. for 5 to 10 days. The cell culture thus obtained was spread on a bouillon agar medium and incubated at 30° C. for 24 hours for colony formation. β-(2-Thienyl)-DL-alanine resistant strains were obtained from the strains that formed colonies. […]

The test system of test [2] is 3-PGDH derived from AJ13377 strain. The test is described as follows: Feedback inhibition of 3-PGDH from AJ13377 by L-serine. The class given is biochemical, Brevibacterium flavum. The following applies: crude enzyme solution; compared with wild type strain ATCC 14067; FIG. 1. The procedure: (§1) The activity of 3-PGDH can be determined, for example, by the measurement of a decrease in coenzyme NADH2 in a reverse reaction (E. Sugimoto and L. I. Pizer, JBC, 243, 2081, 1968) or synthesis of coenzyme NADH2 in a forward reaction (Salach H. J. Method in Enzymology, vol.9, 216-220, 1966) by absorbance at 340 nm.
(§2) Brevibacterium flavum AJ13324, AJ13325 and AJ13327 were each incubated on a bouillon agar medium at 30° C. for 24 hours and a loopful of each microorganism was inoculated in a 500 ml shaking flask containing 50 ml of a fermentation medium having the composition shown in Table 2. As a control, the parent strains Brevibacterium flavum ATCC 14067 and AJ13377 were inoculated as a same manner as described above. The medium for inoculation was adjusted to pH 5.5 with sodium hydroxide and autoclaved at 115° C. for 15 minutes. […]
(§3) The enzyme activity of 3-PGDH was measured by the method of Salach H. J. et al. (Method in Enzymology, vol 9, 216-220 (1966)).
(§4) More specifically, 0.4 ml of 0.015 M NAD, 0.12 ml of 0.25 M EDTA (pH 9, NaOH), 0.1 ml of 0.05 M glutathione (pH 6, KOH), 0.5 ml of 1 M hydrazine (pH 9, acetate), 0.6 ml of 1 M Tris (pH 9, HCl), a suitable concentration of L-serine (0 to 40 mM), and water to make 2.3 ml, warmed to 25° C. in advance, were added. […] After stirring, the absorbance at 340 nm of the reaction mixture was measured for 30 seconds. […]

Test [3] deals with 3-PGDH derived from ATCC14067 strain (wild type). The test is described as follows: Feedback inhibition of wild type 3-PGDH by L-serine. It counts as biochemical, Brevibacterium flavum. The following applies: wild type coryneform bacterium 3-PGDH; 10 mM L-serine. How it is done:
as §1, §2, §3, §4

The subject of test [4] is 3-PGDH derived from AJ13324 strain. Put plainly: Feedback inhibition of 3-PGDH from AJ13324 by L-serine. The class given is biochemical, Brevibacterium flavum. The following applies: crude enzyme solution; FIG. 1. How it is done: as §1, §2, §3, §4
In test [5] the test system is 3-PGDH derived from AJ13327 strain. The test is described as follows: Feedback inhibition of 3-PGDH from AJ13327 by L-serine. The class given is biochemical, Brevibacterium flavum. The procedure: as §1
Brevibacterium flavum AJ13324, AJ13325 and AJ13327 were each incubated on a bouillon agar medium at 30° C. for 24 hours and a loopful of each microorganism was inoculated in a 500 ml shaking flask containing 50 ml of a fermentation medium having the composition shown in Table 2. As a control, the parent strains Brevibacterium flavum ATCC 14067 and AJ13377 were inoculated as a same manner as described above. The medium for inoculation was adjusted to pH 5.5 with sodium hydroxide and autoclaved at 115° C. for 15 minutes.
After collecting cells from the culture broth of each strain, the cells were washed twice with physiological saline and suspended in 50 mM sodium phosphate buffer (pH 7.0) containing 2 mM dithiothreitol. After ice cooling, the suspension was subjected to a sonicator to fragment the cells and the resulting liquid was ultracentrifuged. The ultracentrifugaton was run at 45,000 rpm for 1 hour to obtain a crude enzyme solution.
as §3
[…] Then, 0.2 ml of the crude enzyme solution was added and the temperature was kept the same for 5 minutes. Thereafter, 0.5 ml of 0.1 M 3-PGA (3-phosphoglycerate disodium salt, pH 7, NaOH) was added. After stirring, the absorbance at 340 nm of the reaction mixture was measured for 30 seconds. The reaction was carried out at 25° C.
For the measurement of activity, Hitachi U-2000A spectrophotometer was used.

Test [6] deals with Brevibacterium flavum AJ13324 and AJ13327. Put plainly: Growth of azaserine resistant strains in the presence of azaserine. The class given is cell-based. The following applies: 0.25 g/L of azaserine. How it is done:
The term “azaserine resistance” refers to the property that a bacterium grows faster than the wild type in a medium containing azaserine. For example, those strains that form colonies on a solid medium containing 0.25 g/L of azaserine at 30° C. within 4 to 5 days are said to have azaserine resistance.
To select azaserine resistant strains from NG treated strains using Brevibacterium flavum AJ13377 as a parent strain, NG treated Brevibacterium flavum AJ13377 cells after washed were inoculated on a minimal medium for selection. The minimal medium for selection was a medium that contained 20 g of glucose, 1 g of ammonium sulfate, 1 g of potassium dihydrogen phosphate, 2.5 g of urea, 0.4 g of magnesium sulfate heptahydrate, 0.01 g of iron (II) sulfate heptahydrate, 0.01 g of manganese sulfate tetra- to pentahydrate, 50 μg of biotin, 200 μg of thiamin hydrochloride, 200 μg of nicotinic acid amide, and 250 mg of azaserine per liter of distilled water. The NG treated mutant was incubated in the above-described medium at 30° C. for 5 to 10 days. The cell culture thus obtained was spread on a bouillon agar medium and incubated at 30° C. for 24 hours for colony formation. Azaserine resistant strains were obtained from the strains that formed colonies. The mutants thus obtained included many strains that accumulated L-serine in considerable amounts at high yields. […]

`NC(Cc1cccs1)C(=O)O` (racemic) [β-(2-thienyl)-DL-alanine]: the “growth in the presence of β-(2-thienyl)-DL-alanine” value in test [1] is on record as “able to grow”.
`N[C@@H](CO)C(=O)O` [L-serine]: the “L-serine sensitivity of 3-PGDH” value in test [2] is “relieved of L-serine sensitivity”; in test [4], “more relieved of L-serine sensitivity”; in test [5] (crude enzyme solution, FIG. 1) it was “relieved of L-serine sensitivity greatly”. For the same compound, the “3-PGDH activity in the presence of L-serine” value in test [3] is given as “almost completely inhibited”. Besides, the “3-PGDH activity retained in the presence of L-serine (relative to absence of L-serine)” value in test [5] (80 mM L-serine) is approximately 100%. The “feedback inhibition of 3-PGDH by L-serine” value in test [5] (80 mM L-serine, FIG. 1) is given as “completely desensitized”.
`[N-]=[N+]=CC(=O)OC[C@H](N)C(=O)O` [azaserine]: in test [6], the “growth in the presence of azaserine” value is on record as “able to grow”.

Source of the values: patent US20030008358A1, “Method of producing L-serine by fermentation” (AJINOMOTO CO. INC, priority 1998, published 2003).
